From patent US20190308988A1, “OPIOID RECEPTOR ANTAGONIST PRODRUGS” (Nirsum Laboratories, Inc., priority 2017, published 2019) come the findings set out here.

Converted amounts (≈) assume the structure as drawn. Where only a bound is given, the exact number is not on record here.

Data set [1] can be described thus: Solubility determination in oil (Table 10). The note with it: thermodynamic from solid; for solubility at 24 h: 25 °C, Obs. Temp. 25 °C; for solubility thermodynamic: water, Equilibrium solubility: Water. On the procedure:
A known amount of test substance (˜40 mg) was weighed into the vial, 100 μL of oil was added and heated to 60° C. and then system was slurried to reach equilibrium. […] Extra oil was added into the vial once compound precipitated out and then the system was re-equilibrated at 1000 rpm at room temperature (25° C.). Final concentration was determined by HPLC method as described below in Table 6a and 6b.

Data set [2] in a line: Polymorph screening of solid state drug substances (Table 23). The note with it: stirred 50 °C 72 hours; for Dry method and appearance: dried solid. Format: physicochemical.
A short description of data set [3]: Dog pharmacokinetic studies, deep intramuscular administration. In kind it is in vivo, Beagle dogs. The note with it: Beagle, dog, plasma, im, 48 mg/kg, IM 48 mg/kg, Sesame oil + 1% Benzyl Alcohol. On the procedure:
The purpose of this study is to determine the pharmacokinetics of test compounds in plasma, following deep intramuscular administration to Beagle dogs (n=3, unless otherwise specified).
The dose formulation (concentration—400 mg base equivalents/ml in sesame oil+1% benzyl alcohol, unless otherwise specified) was administered via deep intramuscularly (unless otherwise specified). The injection vehicle was also dosed via deep intramuscular route (unless otherwise specified) on contralateral site of each animal at study initiation. The animals were sedated with Propofol at 6 mg/kg via IV administration. Following sedation hair was carefully removed from around the injection site and the area gently cleaned. Care will be taken to avoid irritating skin during shaving and cleaning the injection site. Then dogs will be dosed with deep IM administration. At least 2.5 cm depth from the surface into the central aspect of the quadriceps or biceps femoris muscle, by angling the needle toward the femur. If the needle hits the femur, simply draws back slightly and then inject. The dose volume will be determined by the animals' body weight collected on the morning of dosing day. For repeated administration, the injection sites may be rotated to minimize tissue injury.
Blood samples were collected from a peripheral vessel from restrained, non-sedated animals per sampling time point.
Approximately 0.8 mL blood will be collected at each time point.
Each collected blood sample was centrifuged for 4 minutes at 4° C. and 10000 rpm for plasma collection. Plasma was collected and transferred into a pre-labeled PP tube in dry ice at each time point and precipitated immediately using ACN at a ratio of 1:4 (plasma:ACN).
LC-MS/MS methods for the quantitative determination of test compound in biological matrix were developed. […] The sample analysis was performed concurrently with a set of calibration standards and two sets of QC samples using the LC-MS/MS method.
Plasma concentration versus time data was analyzed by non-compartmental approaches using the Phoenix WinNonlin 6.3 software program. Cmax, Tmax, T1/2, AUC(0-t), AUC(0-inf), MRT(0-t), MRT(0-inf) and graphs of plasma concentration versus time profile were prepared.

Setting [4] is: oil or lipid, Approximate Solubility in Excipient: Cottonseed oil, Heating Temp. 60 °C.
The mark [5] stands for this setting: oil or lipid, Approximate Solubility in Excipient: Sesame oil, Heating Temp. 60 °C.
[6] abbreviates: 40 °C, Heating Temp. 40 °C, Obs. Temp. 40 °C.
Where [7] appears, read: 40 °C, oil or lipid, Approximate Solubility in Excipient: Cottonseed oil, Heating Temp. 40 °C, Obs. Temp. 40 °C.
Where [8] appears, read: 40 °C, oil or lipid, Approximate Solubility in Excipient: Cottonseed oil, Heating Temp. 60 °C, Obs. Temp. 40 °C.
Setting [9] is: 40 °C, oil or lipid, Approximate Solubility in Excipient: Sesame oil, Heating Temp. 40 °C, Obs. Temp. 40 °C.
Setting [10] is: 40 °C, oil or lipid, Approximate Solubility in Excipient: Sesame oil, Heating Temp. 60 °C, Obs. Temp. 40 °C.
Setting [11] is: 40 °C, organic solvent or mixture, Approximate Solubility in Excipient: Ethanol, Heating Temp. 40 °C, Obs. Temp. 40 °C.
Where [12] appears, read: 40 °C, Heating Temp. 60 °C, Obs. Temp. 40 °C.
[13] abbreviates: after slurry in EtOAc, temperatures N/A.
[14] abbreviates: after slurry in Heptane, temperatures N/A.

On to `C=C1CC[C@@]2(O)C3Cc4ccc(OC(=O)OCCCCCCCCCCCCCC)c5c4[C@@]2(CCN3CC2CC2)[C@H]1O5` [Compound 31, (4aS,7aS,12bS)-3-(cyclopropylmethyl)-4a-hydroxy-7-methylene-2,3,4,4a,5,6,7,7a-octahydro-1H-4,12-methanobenzofuro[3,2-e]isoquinolin-9-yl tetradecyl carbonate], for which the solubility at 24 h is above 417 mg/mL in data set [1] (setting [4]) and above 414 mg/mL in data set [1] (setting [5]). Besides, the thermodynamic solubility in data set [1] (setting [6]) was below 0.001 mg/mL. The “XRPD results (Dried)” value in data set [2] (Acetone), in data set [2] (EtOAc), in data set [2] (Heptane), in data set [2] (Isopropanol) and in data set [2] (MTBE) was “Pattern A” each time. Also, the “Dry method and appearance” value in data set [2] (Acetone), in data set [2] (EtOAc), in data set [2] (Heptane), in data set [2] (Isopropanol) and in data set [2] (MTBE) was “Evaporation/white powder” each time.

Take `C=C1CC[C@@]2(O)C3Cc4ccc(OCOC(=O)OCCCCCCCC/C=C/CCCCCCCC)c5c4[C@@]2(CCN3CC2CC2)[C@H]1O5` [Compound 1, (((4aS,7aS,12bS)-3-(cyclopropylmethyl)-4a-hydroxy-7-methylene-2,3,4,4a,5,6,7,7a-octahydro-1H-4,12-methanobenzofuro[3,2-e]isoquinolin-9-yl)oxy)methyl ((E)-octadec-9-en-1-yl) carbonate]: the AUC(0-inf) in data set [3] (read-out: AUC0-inf (ng · h/mL) prodrug) was determined as 1040 ng·h/mL. The half-life in data set [3] (read-out: Half-life t1/2 (hour) prodrug (converted)) was 261 h.

With `C=C1CC[C@@]2(O)C3Cc4ccc(OC(=O)CCCCCCCCCCCCCCCCCCC)c5c4[C@@]2(CCN3CC2CC2)[C@H]1O5` [Compound 16, (4aS,7aS,12bS)-3-(cyclopropylmethyl)-4a-hydroxy-7-methylene-2,3,4,4a,5,6,7,7a-octahydro-1H-4,12-methanobenzofuro[3,2-e]isoquinolin-9-yl icosanoate], the solubility in data set [1] (setting [7]) was 57 to 67 mg/mL (≈ 89.9 to 106 mM); in data set [1] (setting [8]), 201 to 403 mg/mL (≈ 317 to 636 mM); in data set [1] (setting [9]), 68 to 81 mg/mL (≈ 107 to 128 mM); in data set [1] (setting [10]), 202 to 404 mg/mL (≈ 319 to 637 mM); in data set [1] (setting [11]), below 25 mg/mL. In addition, the thermodynamic solubility in data set [1] (setting [6]) amounted to 0.206 mg/mL (≈ 0.325 mM); in data set [1] (setting [12]) it was 0.011 mg/mL (≈ 0.0174 mM). Moreover, the “XRPD results (Dried)” value in data set [2] (Acetone), in data set [2] (EtOAc), in data set [2] (Heptane), in data set [2] (Isopropanol) and in data set [2] (MTBE) was “Pattern A” throughout. Moreover, the “Dry method and appearance” value in data set [2] (Acetone) is “Evaporation/white powder”; in data set [2] (EtOAc), “Evaporation/white powder”; in data set [2] (Heptane) it was “Centrifugation/white powder”; in data set [2] (Isopropanol), “Centrifugation/white powder”; in data set [2] (MTBE), “Evaporation/white powder”.

Take `CCCCCCCCCCCCCCCC(=O)Oc1ccc2c3c1O[C@H]1C(=O)CC[C@@]4(O)C(C2)N(CC2CC2)CC[C@]314` [Compound 55, (4aS,7aR,12bS)-3-(cyclopropylmethyl)-4a-hydroxy-7-oxo-2,3,4,4a,5,6,7,7a-octahydro-1H-4,12-methanobenzofuro[3,2-e]isoquinolin-9-yl palmitate]: the solubility at 24 h in data set [1] (setting [4]) and in data set [1] (setting [5]) was below 50 mg/mL in each case. For the same molecule, the solubility was above 400 mg/mL in data set [1] (setting [8]); above 395 mg/mL in data set [1] (setting [10]); above 401 mg/mL in data set [1] (40 °C, organic solvent or mixture, Approximate Solubility in Excipient: Ethanol, Heating Temp. 60 °C, Obs. Temp. 40 °C). The values for the thermodynamic solubility in data set [1] (setting [12]) and in data set [1] (setting [13]) were 0.0066 mg/mL (≈ 0.0114 mM) and below 0.0005 mg/mL, respectively. Moreover, the “XRPD results (Dried)” value in data set [2] (Acetone), in data set [2] (EtOAc), in data set [2] (Heptane), in data set [2] (Isopropanol) and in data set [2] (MTBE) was “Pattern B” each time. The “Dry method and appearance” value in data set [2] (Acetone), in data set [2] (EtOAc), in data set [2] (Heptane), in data set [2] (Isopropanol) and in data set [2] (MTBE) was “Evaporation/white powder” throughout.

Regarding `C=C1CC[C@@]2(O)C3Cc4ccc(OC(=O)CCCCCCCCCCCCCCCCCCCCC)c5c4[C@@]2(CCN3CC2CC2)[C@H]1O5` [Compound 14, (4aS,7aS,12bS)-3-(cyclopropylmethyl)-4a-hydroxy-7-methylene-2,3,4,4a,5,6,7,7a-octahydro-1H-4,12-methanobenzofuro[3,2-e]isoquinolin-9-yl docosanoate], the solubility in data set [1] (setting [7]) is below 50 mg/mL; in data set [1] (setting [8]), below 25 mg/mL; in data set [1] (setting [9]) it was below 51 mg/mL; in data set [1] (setting [10]), below 25 mg/mL; in data set [1] (setting [11]) it was 69 to 83 mg/mL (≈ 104 to 125 mM). In addition, the results for the solubility (thermodynamic) in data set [1] (setting [6]), in data set [1] (setting [13]) and in data set [1] (setting [14]) were 0.01 mg/mL (≈ 0.0151 mM), below 0.0005 mg/mL and below 0.0005 mg/mL, respectively. The “XRPD results (Dried)” value is reported as “Pattern A” in data set [2] (Acetone); “Pattern A” in data set [2] (EtOAc); “Pattern B” in data set [2] (Heptane); “Pattern A” in data set [2] (Isopropanol); “Pattern A” in data set [2] (MTBE). Moreover, the “Dry method and appearance” value in data set [2] (Acetone) is recorded as “Evaporation/white powder”; in data set [2] (EtOAc), “Evaporation/white powder”; in data set [2] (Heptane) it was “Centrifugation/white powder”; in data set [2] (Isopropanol) it was “Evaporation/white powder”; in data set [2] (MTBE) it was “Evaporation/white powder”.

Regarding `CCCCCCCCCCCCOC(=O)Oc1ccc2c3c1O[C@H]1C(=O)CC[C@@]4(O)C(C2)N(CC2CC2)CC[C@]314` [Compound 11, (4aS,7aR,12bS)-3-(cyclopropylmethyl)-4a-hydroxy-7-oxo-2,3,4,4a,5,6,7,7a-octahydro-1H-4,12-methanobenzofuro[3,2-e]isoquinolin-9-yl dodecyl carbonate], the solubility at 24 h in data set [1] (setting [4]) is below 51 mg/mL; in data set [1] (setting [5]), below 50 mg/mL. Further, the solubility is above 407 mg/mL in data set [1] (setting [7]), above 407 mg/mL in data set [1] (setting [9]) and above 218 mg/mL in data set [1] (setting [11]). The thermodynamic solubility in data set [1] (setting [6]) worked out at 0.0005 mg/mL (≈ 0.000903 mM); in data set [1] (setting [14]), 0.0026 mg/mL (≈ 0.0047 mM). In addition, the “XRPD results (Dried)” value in data set [2] (Acetone) was “Pattern A”; in data set [2] (EtOAc) it was “Pattern A”; in data set [2] (Heptane), “Pattern B”; in data set [2] (Isopropanol), “Pattern A”; in data set [2] (MTBE) it was “Pattern A”. Besides, the “Dry method and appearance” value in data set [2] (Acetone), in data set [2] (EtOAc), in data set [2] (Heptane), in data set [2] (Isopropanol) and in data set [2] (MTBE) was “Evaporation/white powder” throughout.

The solubility is the dissolved amount per volume that the medium holds. Broadly, the solubility (thermodynamic) is the concentration in solution at equilibrium with solid.
